Experimental data from PubChem BioAssay (NCI).
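Briefly, cells in 96-well plates were exposed to five compound concentrations for 48 h, and endpoints were estimated by linear interpolation. TGI denotes the concentration required for complete inhibition of growth.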

Legend:
Test in all cases: inhibition of tumour cell growth, NCI panel, 48 h
[1] = system: 786-0 renal
[2] = system: A498 renal
[3] = system: A549 NSCLC
[4] = system: ACHN renal
[5] = system: BT-549 breast
[6] = system: CAKI-1 renal
[7] = system: CCRF-CEM leukemia
[8] = system: COLO 205 colon
[9] = system: DU-145 prostate
[10] = system: EKVX NSCLC
[11] = system: HCC-2998 colon
[12] = system: HCT-116 colon
[13] = system: HCT-15 colon
[14] = system: HL-60(TB) leukemia
[15] = system: HOP-92 NSCLC
[16] = system: HS 578T breast
[17] = system: HT29 colon
[18] = system: IGROV1 ovarian
[19] = system: KM12 colon
[20] = system: LOX IMVI melanoma
[21] = system: M14 melanoma
[22] = system: MALME-3M melanoma
[23] = system: MCF7 breast
[24] = system: MDA-MB-231 breast
[25] = system: MDA-MB-435
[26] = system: MDA-N
[27] = system: MOLT-4 leukemia
[28] = system: NCI-H226 lung
[29] = system: NCI-H23 lung
[30] = system: NCI-H460 lung
[31] = system: NCI-H522 lung
[32] = system: NCI/ADR-RES ovarian
[33] = system: OVCAR-3 ovarian
[34] = system: OVCAR-4 ovarian
[35] = system: OVCAR-5 ovarian
[36] = system: OVCAR-8 ovarian
[37] = system: PC-3 prostate
[38] = system: RPMI-8226 leukemia
[39] = system: SF-268 CNS
[40] = system: SF-295 CNS
[41] = system: SF-539 CNS
[42] = system: SK-MEL-2 melanoma
[43] = system: SK-MEL-28 melanoma
[44] = system: SK-MEL-5 melanoma
[45] = system: SK-OV-3 ovarian
[46] = system: SN12C renal
[47] = system: SNB-19 CNS
[48] = system: SNB-75 CNS
[49] = system: SW-620 colon
[50] = system: T-47D breast
[51] = system: TK-10 renal
[52] = system: U251 CNS
[53] = system: UACC-257 melanoma
[54] = system: UACC-62 melanoma
[55] = system: UO-31 renal
[56] = system: K-562 leukemia
[57] = system: RXF 393 renal

COC(C)C(O)(C(=O)OCC1=CCN2CCC(O)C12)C(C)(C)O (stereo not given)
TGI [1]: > 100 µM | TGI [2]: > 100 µM | TGI [3]: > 100 µM | TGI [4]: > 100 µM | TGI [5]: > 100 µM | TGI [6]: > 100 µM | TGI [7]: > 100 µM | TGI [8]: > 100 µM | TGI [9]: > 100 µM | TGI [10]: > 100 µM | TGI [11]: > 100 µM | TGI [12]: > 100 µM | TGI [13]: > 100 µM | TGI [14]: > 100 µM | TGI [15]: > 100 µM | TGI [16]: > 100 µM | TGI [17]: > 100 µM | TGI [18]: > 100 µM | TGI [19]: > 100 µM | TGI [20]: > 100 µM | TGI [21]: > 100 µM | TGI [22]: > 100 µM | TGI [23]: > 100 µM | TGI [24]: > 100 µM | TGI [25]: > 100 µM | TGI [26]: > 100 µM | TGI [27]: > 100 µM | TGI [28]: > 100 µM | TGI [29]: > 100 µM | TGI [30]: > 100 µM | TGI [31]: > 100 µM | TGI [32]: > 100 µM | TGI [33]: > 100 µM | TGI [34]: > 100 µM | TGI [35]: > 100 µM | TGI [36]: > 100 µM | TGI [37]: > 100 µM | TGI [38]: > 100 µM | TGI [39]: > 100 µM | TGI [40]: > 100 µM | TGI [41]: > 100 µM | TGI [42]: > 100 µM | TGI [43]: > 100 µM | TGI [44]: > 100 µM | TGI [45]: > 100 µM | TGI [46]: > 100 µM | TGI [47]: > 100 µM | TGI [48]: > 100 µM | TGI [49]: > 100 µM | TGI [50]: > 100 µM | TGI [51]: > 100 µM | TGI [52]: > 100 µM | TGI [53]: > 100 µM | TGI [54]: > 100 µM | TGI [55]: > 100 µM

O=C(c1ccco1)N(C(=O)N1CCC(c2ccccc2)CC1)c1ccccc1
TGI [1]: > 100 µM | TGI [2]: > 100 µM | TGI [4]: > 100 µM | TGI [5]: > 100 µM | TGI [6]: > 100 µM | TGI [7]: > 100 µM | TGI [8]: > 100 µM | TGI [9]: > 100 µM | TGI [10]: > 100 µM | TGI [12]: > 100 µM | TGI [13]: > 100 µM | TGI [14]: 65.9 µM | TGI [16]: > 100 µM | TGI [17]: > 100 µM | TGI [18]: > 100 µM | TGI [56]: > 100 µM | TGI [19]: 85 µM | TGI [20]: > 100 µM | TGI [21]: > 100 µM | TGI [22]: > 100 µM | TGI [23]: > 100 µM | TGI [24]: > 100 µM | TGI [25]: > 100 µM | TGI [26]: > 100 µM | TGI [27]: 54.2 µM | TGI [28]: > 100 µM | TGI [29]: > 100 µM | TGI [32]: 91 µM | TGI [33]: > 100 µM | TGI [35]: > 100 µM | TGI [36]: > 100 µM | TGI [37]: > 100 µM | TGI [38]: 60 µM | TGI [57]: 90.9 µM | TGI [39]: > 100 µM | TGI [41]: > 100 µM | TGI [42]: > 100 µM | TGI [43]: > 100 µM | TGI [44]: 51.5 µM | TGI [45]: > 100 µM | TGI [46]: > 100 µM | TGI [47]: > 100 µM | TGI [48]: 46.2 µM | TGI [49]: > 100 µM | TGI [50]: 64.2 µM | TGI [51]: > 100 µM | TGI [52]: > 100 µM | TGI [53]: > 100 µM | TGI [54]: > 100 µM | TGI [55]: 83.8 µM
